Test results: PMC9105583, “Stereoselective Synthesis and Anticancer Activity of 2,6-Disubstituted trans-3-Methylidenetetrahydropyran-4-ones” (Materials, 2022)

How the values were obtained:
HL-60 cells [1] = experiment: Annexin V / propidium iodide apoptosis assay, flow cytometry; assay type: cell-based, human; details: for early apoptotic cells (Annexin V-positive and PI-negative) / late apoptotic cells (Annexin V-positive and PI-positive): compound at 2IC50, 24 h; for early apoptotic cells (Annexin V-positive and PI-negative): control 3.3 ± 0.36%; for late apoptotic cells (Annexin V-positive and PI-positive): control 5.5 ± 1.02%; for change in the number of apoptotic cells: compound at IC50, 24 h
Method: Apoptotic cells were detected using FITC Annexin V Apoptosis Detection Kit I (BD Biosciences, San Jose, CA, USA). HL-60 cells (2.0 × 10^5 cells/mL) seeded in 6-well plates and cultured overnight were treated with various concentrations of 13d or 13g for 24 h. Then, the cells were washed with PBS and resuspended in the binding buffer. After staining with FITC Annexin V and propidium iodide (15 min, room temperature) cells were analyzed by flow cytometry using CytoFlex and Kaluza Analysis Software v2 (Beckman Coulter Inc., Brea, CA, USA).
One of the typical features of apoptotic cell death is translocation of phosphatidylserine from the inside surface to the extracellular surface of the cell membrane, which can be detected with Annexin V [27]. Therefore, to examine the ability of the investigated compounds to induce apoptosis in HL-60 cells, we performed Annexin V and propidium iodide (PI) staining (Figure 5C and Figure 6C). In the control group, 90.3 ± 1.15% of HL-60 cells were healthy, 3.3 ± 0.36% were in early stage of apoptosis (Annexin V-positive and PI-negative) and 5.5 ± 1.02% were in late-stage apoptosis (Annaxin V-positive and PI-positive).

HL-60 cells [2] = experiment: Cell morphology by light microscope; assay type: cell-based, human; details: IC50 and 2IC50, 24 h
Method: HL-60 cells were treated with compound 13d or 13g at IC50 and 2IC50 for 24 h. Then, the cells were examined for morphological changes using a light microscope at 40x magnification and photographed.
HL-60 cells grow in suspension and usually have a roughly spherical shape.

HL-60 cells [3] = experiment: Cell cycle distribution, DAPI DNA staining and flow cytometry; assay type: cell-based, human; details: 24 h
Method: (§1) Analysis of apoptosis, DNA damage and cell cycle
(§2) Apoptosis, DNA damage, proliferation and cell cycle kinetics were investigated using the Apoptosis, DNA Damage and Cell Proliferation Kit (BD Biosciences, San Jose, CA, USA) according to the manufacturer’s protocol. Briefly, HL-60 cells (2.0 × 10^5 cells/mL) were seeded in 6-well plates and left to grow for 24 h. Then, the cells were treated with 13d or 13g at IC50 and 2IC50 concentrations. After 24 h incubation, the cells were treated with BrdU solution for 8 h. Then, the cells were collected by centrifugation, fixed and permeabilized. To expose the incorporated BrdU, the cells were incubated with DNase (300 µg/mL in PBS) for 1 h at 37 °C. Afterwards, the cells were stained with fluorescent antibodies, including Anti-BrdU, Anti-Cleaved PARP (Asp214) and Anti-H2AX (pS139) for 20 min at room temperature. Total DNA for cell cycle analysis was stained using DAPI solution (1 µg/mL in staining buffer). Finally, the cells were analyzed by flow cytometry using CytoFLEX (Beckman Coulter, Inc., Brea, CA, USA) and the data analysis was performed with Kaluza Analysis Software v2 (Beckam Coulter, Inc., Brea, CA. USA).
The cell cycle has a critical role in regulation of cell growth, proliferation and division of cells after DNA damage. Therefore, it often serves as a target in cancer therapy development. The cell cycle distribution was investigated using DAPI DNA staining and flow cytometry analysis.

human topoisomerase IIα = molecular target: T1, human topoisomerase IIα (Homo sapiens, UniProt P11388); experiment: Human Topoisomerase II Decatenation Assay (kDNA); assay type: biochemical; details: for inhibition of topoisomerase II activity: 0.5 mM and 1 mM concentrations, 30 min at 37 °C
T1 construct: purchased Inspiralis, Norwich, UK
Method: Topoisomerase IIα activity
Topoisomerase IIα activity inhibition was assessed using the Human Topoisomerase II Decatenation Assay (Inspiralis, Norwich, UK). Briefly, kDNA was incubated with ATP, assay buffer (50 mM Tris-HCl pH 7.5, 125 mM NaCl, 10 mM MgCl2, 5 mM DTT, 100 µg/mL albumin), human topoisomerase II enzyme and various concentrations of the investigated compounds for 30 min at 37 °C. The reaction was stopped by addition of STEB (40% (w/v) sucrose, 100 mM Tris-HCl pH 8, 1 mM EDTA, 0.5 mg/mL bromophenol blue) followed by DNA extraction with chloroform/iso-amyl alcohol mixture (24:1). The samples were loaded onto a 1% agarose gel and run in a TBE buffer at 85 V for 65 min. Gels were stained with ethidium bromide (1 µg/mL) for 15 min, destained in water and visualized with a transilluminator (ChemiDoc MP Imaging System, Bio-Rad, Hercules, CA, USA).
The ability of the analogs to inhibit topoisomerase II activity was investigated by measuring decatenation of kinetoplast DNA (kDNA) by human topoisomerase IIα. Topoisomerase II has the ability to decatenate interlinked dsDNA minicircles.

HL-60 cells [4] = experiment: BrdU incorporation (proliferation), flow cytometry; assay type: cell-based, human; details: 24 h, then BrdU 8 h
Method: as §1, §2
To examine the influences of the investigated compounds on HL-60 cell proliferation, cells were exposed to a thymidine analog, bromodeoxyuridine (BrdU), that incorporates into newly synthesized DNA during proliferation.

γH2AX in HL-60 cells = experiment: γH2AX (H2AX pS139) DNA damage detection, flow cytometry; assay type: cell-based, human; details: compound at 2IC50, 24 h; control 1.1 ± 0.17%
Method: as §1, §2
DNA damage can be the result of either single- or double-strand breaks (DSBs). DSB are considered the most dangerous, as it is assumed that in metazoan, just one DSB has the potential to trigger cell death. […]

[5] = system: cleaved PARP in HL-60 cells; experiment: Cleaved PARP (Asp214) detection, flow cytometry; assay type: cell-based, human; details: compound at 2IC50 concentration, 24 h; control 0.7 ± 0.13%
Method: as §1, §2
Another hallmark of apoptosis is cleavage of poly(ADP-ribose) polymerase 1 (PARP1) into 24 kDa and 89 kDa fragments executed by caspases 3 and 7. […]

[6] = compound at 2IC50 concentration

T1 sequence (P11388 whole entry): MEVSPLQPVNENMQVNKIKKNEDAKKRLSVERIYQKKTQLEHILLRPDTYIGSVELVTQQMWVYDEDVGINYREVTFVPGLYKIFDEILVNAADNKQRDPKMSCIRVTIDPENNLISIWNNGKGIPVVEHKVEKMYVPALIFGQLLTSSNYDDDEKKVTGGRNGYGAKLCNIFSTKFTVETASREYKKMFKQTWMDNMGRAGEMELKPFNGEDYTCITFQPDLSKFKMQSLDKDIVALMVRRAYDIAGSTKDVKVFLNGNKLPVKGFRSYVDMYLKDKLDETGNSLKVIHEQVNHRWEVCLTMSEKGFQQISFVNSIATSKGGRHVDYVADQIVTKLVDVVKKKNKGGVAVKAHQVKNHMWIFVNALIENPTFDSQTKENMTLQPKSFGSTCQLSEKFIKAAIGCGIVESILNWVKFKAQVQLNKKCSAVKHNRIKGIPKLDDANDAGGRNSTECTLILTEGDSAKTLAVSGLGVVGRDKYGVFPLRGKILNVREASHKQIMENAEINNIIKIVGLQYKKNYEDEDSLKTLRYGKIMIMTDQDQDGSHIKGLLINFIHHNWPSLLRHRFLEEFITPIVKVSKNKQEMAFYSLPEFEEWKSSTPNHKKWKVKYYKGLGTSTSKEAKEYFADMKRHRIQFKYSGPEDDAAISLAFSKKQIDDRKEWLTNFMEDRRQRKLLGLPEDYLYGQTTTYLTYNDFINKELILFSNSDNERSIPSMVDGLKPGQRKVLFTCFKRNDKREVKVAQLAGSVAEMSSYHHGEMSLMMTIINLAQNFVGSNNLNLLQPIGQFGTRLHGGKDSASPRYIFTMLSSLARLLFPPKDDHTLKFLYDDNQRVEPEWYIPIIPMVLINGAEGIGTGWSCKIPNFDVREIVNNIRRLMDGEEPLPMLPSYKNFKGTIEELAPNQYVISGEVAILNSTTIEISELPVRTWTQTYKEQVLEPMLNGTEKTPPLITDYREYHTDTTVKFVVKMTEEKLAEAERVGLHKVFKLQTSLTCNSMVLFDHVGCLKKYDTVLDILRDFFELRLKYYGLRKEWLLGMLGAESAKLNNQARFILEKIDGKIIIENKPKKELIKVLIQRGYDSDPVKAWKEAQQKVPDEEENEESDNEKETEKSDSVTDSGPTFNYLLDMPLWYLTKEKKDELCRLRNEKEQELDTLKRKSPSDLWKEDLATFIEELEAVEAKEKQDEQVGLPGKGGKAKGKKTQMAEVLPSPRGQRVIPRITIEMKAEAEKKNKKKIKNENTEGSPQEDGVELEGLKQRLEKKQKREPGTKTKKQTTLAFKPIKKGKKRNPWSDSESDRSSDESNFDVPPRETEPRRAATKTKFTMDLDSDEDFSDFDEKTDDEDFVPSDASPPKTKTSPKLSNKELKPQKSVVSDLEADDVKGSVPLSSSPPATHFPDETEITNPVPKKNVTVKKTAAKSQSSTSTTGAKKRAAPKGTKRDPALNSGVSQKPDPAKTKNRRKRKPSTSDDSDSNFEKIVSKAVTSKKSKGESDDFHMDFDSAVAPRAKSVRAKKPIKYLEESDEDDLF

## C=C1C(=O)C[C@H](C(C)C)O[C@H]1C(C)C (relative stereo) [Analog 13d, Trans-2,6-diisopropyl-3-methylidenetetrahydro-4H-pyran-4-one]
HL-60 cells [1]
  early apoptotic cells (Annexin V-positive and PI-negative): 13.0 ± 2.64%
  late apoptotic cells (Annexin V-positive and PI-positive): 24.6 ± 2.34%
  change in the number of apoptotic cells: did not induce a significant change
HL-60 cells [2]
  morphological changes of the cells: induced several morphological changes
HL-60 cells [3]; [6]
  population of cells in G0/G1 phase: diminished
HL-60 cells [3]; compound at 2IC50 concentration, control 14.9 ± 1.37%
  cells in the G2/M phase: 24.1 ± 1.40%
Human topoisomerase IIα
  inhibition of topoisomerase II activity: inhibited topoisomerase II activity
HL-60 cells [4]; [6]
  BrdU-incorporating cell population: 26.4 ± 6.9%
HL-60 cells [4]; compound at IC50 concentration
  BrdU-incorporating cell population: 31.5 ± 1.65%
γH2AX in HL-60 cells
  cells with γH2AX generation (H2AX phosphorylation): 38.4 ± 5.89%
[5]
  population of cells with cleaved PARP: 49.0 ± 1.61%

## C=C1C(=O)C[C@H](c2ccccc2)O[C@H]1C(C)C (relative stereo) [Analog 13g, Trans-2-isopropyl-3-methylidene-6-phenyltetrahydro-4H-pyran-4-one]
HL-60 cells [1]
  early apoptotic cells (Annexin V-positive and PI-negative): 8.7 ± 0.57%
  late apoptotic cells (Annexin V-positive and PI-positive): 39.5 ± 1.16%
  change in the number of apoptotic cells: not effective
HL-60 cells [2]
  morphological changes of the cells: induced several morphological changes
HL-60 cells [3]; not statistically significant
  change of G2/M cell population: slight increase
Human topoisomerase IIα
  inhibition of topoisomerase II activity: inhibited topoisomerase II activity
Human topoisomerase IIα; 0.5 and 1 mM
  inhibitory activity towards topoisomerase IIα compared with 13d: stronger inhibitory activity
HL-60 cells [4]; [6]
  BrdU-incorporating cell population: 31.9 ± 6.02%
HL-60 cells [4]; compound at IC50 concentration
  BrdU-incorporating cell population: 35.3 ± 1.23%
γH2AX in HL-60 cells
  cells with γH2AX generation (H2AX phosphorylation): 9.6 ± 2.94%
[5]
  population of cells with cleaved PARP: 13.5 ± 3.6%
